Structures are written as SMILES.

For assay [1], the system named is patients having cardio-cerebrovascular diseases resulting from arteriosclerosis. Briefly: Clinical trial in patients with cardio-cerebrovascular diseases resulting from arteriosclerosis. Type of assay: in vivo, human. The following applies: for Total effective rate: excluding the withdrawing patients. The source says: 300 patients (male:female 1:1, aged 35-78 years and 57.5 years on average, and having a course of disease of the shortest 1.5 years, the longest 7 years, and 4.6 years on average) diagnosed as having cardio-cerebrovascular diseases resulting from arteriosclerosis were selected at random as subjects for clinical observation. The patients were assigned to a group A, a group B, and a group C at random, each group having 100 patients.
Group A: The patients were orally administered with NMN at a dosage of 10 mg/kg body weight before or after meals every day, and the diet was controlled as desired.
Group B: The patients were orally administered with NMN at a dosage of 10 mg/kg body weight and with NR at a dosage of 2 mg/kg body weight before or after meals every day, and the diet was controlled as desired.
Group C: The patients were intramusculary injected with NMN at a dosage of 10 mg/kg body weight and with NR at a dosage of 3 mg/kg body weight before or after meals every day, and the diet was controlled as desired.
(1) Obvious effectiveness: The health is built up, the body is powerful, the blood lipid and blood pressure drop to normal levels, the palpitation, chest pain, chest tightness, headache, dizziness, decreased vision, decreased memory, insomnia and dreamful sleep, and other clinical symptoms are obvious alleviated.
(2) Effectiveness: The health is built up, the blood lipid and blood pressure drop slightly, the palpitation, chest pain, chest tightness, headache, dizziness, decreased vision, decreased memory, insomnia and dreamful sleep, and other clinical symptoms are alleviated to some extent.
(3) Ineffectiveness: There is no obvious improvement in the clinical symptoms.

For assay [2], the system named is arteriosclerosis (lesion of the aorta) in guinea pigs fed on high-fat diet. The assay is described as follows: Guinea pig high-fat diet arteriosclerosis model, lesion area of aorta (Sudan IV staining). Type of assay: in vivo. As for the experimental part: 80 SPF healthy guinea pigs (female:male 1:1) having a body weight of 250-300 g, were assigned to 8 groups at random, each group having 10 animals. The groups include:
(1) a normal control group, fed on basal diet, and allowed to free access to water during experiment;
(2) a high fat control group, fed on high-fat diet, and allowed to free access to water during experiment;
(3) a high fat prevention group, fed on high-fat diet, dosed with 10 mg NMN/kg body weight by gavage every day, and allowed to free access to water during experiment;
(4) a low-dose NMN group, fed on high-fat diet, dosed with 0.1 mg NMN/kg body weight by gavage every day from week 7, and allowed to free access to water during experiment;
(5) a medium-dose NMN group, fed on high-fat diet, dosed with 10 mg NMN/kg body weight by gavage every day from week 7, and allowed to free access to water during experiment;
(6) a high-dose NMN group, fed on high-fat diet, dosed with 20 mg NMN/kg body weight by gavage every day from week 7, and allowed to free access to water during experiment;
(7) NMN+NR gavage group: fed on high-fat diet, dosed with 10 mg NMN/kg body weight and 1 mg NR/kg body weight by gavage every day from week 7, and allowed to free access to water during experiment.
(8) NMN+NR injection group: fed on high-fat diet, dosed with 10 mg NMN/kg body weight and 5 mg NR/kg body weight by intramuscular injection every day from week 7, and allowed to free access to water during experiment.
The formulation of the high-fat diet includes 83% basal diet, 2% cholesterol, and 15% lard oil.
At the end of week 10, all the experimental animals was fasted (allowed to access to water) for 12 hrs and then sacrificed. The aorta was isolated, dissected longitudinally along the midline of the anterior wall, and stained with Sudan IV. […] The lesion area pathologically measured and the total endangium area were quantified, and the degree of arteriosclerosis was expressed by percentages of the lesion area relative to the total endangium area of the aorta.
Statistical analysis: All the experimental data is analyzed by SPSS13.0 Statistics software. The measurement data is expressed as x±s, and t test is applied to check the statistical significance. Where P<0.05, there is statistical significance.

Setting [3] is: Group A: oral NMN 10 mg/kg every day, after 1 month.
The mark [4] stands for this setting: Group A: oral NMN 10 mg/kg every day, after 1 month, 100 patients.

With `NC(=O)c1ccc[n+]([C@@H]2O[C@H](COP(=O)([O-])O)[C@@H](O)[C@H]2O)c1` [NMN, β-nicotinamide mononucleotide], the “Time after administration at which patients with mild disease are cured” value in assay [1] (Group A: oral NMN 10 mg/kg body weight every day) worked out at 7 days. Also, the “Patients showing obvious effectiveness” value in assay [1] (setting [3]) is on record as 67 out of 100 patients. For the same compound, the Patients showing effectiveness in assay [1] (setting [4]) is listed as 28 patients. The Patients showing ineffectiveness in assay [1] (setting [4]) is given as 4 patients. Moreover, the Total effective rate in assay [1] (setting [3]) is 96%; in assay [1] (Group A: oral NMN 10 mg/kg every day, after 1 month, listed as β-nicotinamide mononucleotide), “up to 96%”. In addition, the “Rate of lesion area of aorta (%)” value in assay [2] (high fat prevention group: high-fat diet, 10 mg NMN/kg body weight by gavage every day, end of week 10, x±s) worked out at 13 ± 2%; in assay [2] (high-dose: high-fat diet, 20 mg NMN/kg by gavage every day from week 7, end of week 10, x±s), 18 ± 4%; in assay [2] (low-dose: high-fat diet, 0.1 mg NMN/kg by gavage every day from week 7, end of week 10, x±s) it was 58 ± 5%; in assay [2] (medium-dose: high-fat diet, 10 mg NMN/kg by gavage every day from week 7, end of week 10, x±s), 27 ± 3%.
